Peptide text beside a SMILES is read from it. * marks the point of attachment. Cbz = O=C(OCc1ccccc1)*
Key:
ERK activation (pERK) = assay: ERK activation in dox-inducible monobody-expressing cell lines; type: cell-based; conditions: H358; after 24 and 48 hours; dox-induced expression or ARS1620 treatment
Experimental: Cell signaling assay and quantification of immunoblots. Cells were lysed in RIPA buffer (50 mM Tris-Cl pH 8, 150 mM NaCl, 5 mM EDTA pH8, 0.1% SDS, 1% NP40) supplemented with protease inhibitors (Roche; 5892991001) and phosphatase inhibitors (54 mM β-glycerophosphate, 10 mM NaF, 1 mM sodium vanadate) for 15 minutes on ice, and centrifuged at 15,000 g for 15 minutes. The supernatant was collected and measured for total protein amount using BCA assay (Thermo Scientific; 23227). Lysate (7-20 μg per well) was loaded onto a pre-cast SDS gel (BioRad; 456-1096) followed by electrophoresis. The proteins were then transferred from the gel to a low fluorescence background PVDF membrane (Millipore; IPFL00010) or regular PVDF membrane (Millipore; ISEQ00010) depending on whether fluorescence or chemiluminescence detection was performed. Phospho-ERK was detected using a rabbit anti-pERK antibody (Cell Signaling; 9101S) and total ERK was detected using a rabbit anti-ERK antibody (Cell Signaling; 9102S). Monobody expression was detected using mouse anti-Flag antibody (Sigma; F3165) or anti-HA tag antibody (BioLegend; 901516). Loading control was detected with primary antibody against tubulin-alpha (Thermo Scientific, 62204) or against cytochrome oxidase (COX IV) (Li-Cor, 926-42214). The total RAS level was detected using a pan-RAS antibody (SCBT, sc-166691). The KRAS level was determined using a KRAS-specific antibody (Sigma, WH0003845M1). For fluorescence detection of immunoblots, the membranes were imaged with a Licor Odyssey Clx imager (Li-Cor Bioscience) using IRDye anti-Rabbit 800CW and anti-Mouse 680LT (Li-Cor Bioscience, 926-32211 and 926-68020, respectively) as secondary antibodies. […] Band intensities of western blot were analyzed with Image Studio Lite version 5.2 (Li-Cor Bioscience). To quantify protein abundance in the degradation experiment, the intensities of pERK, RAS, KRAS, and Flag/HA tag bands were first normalized against the loading control of the perspective blot, which were either tubulin-α, COX IV or total ERK, followed by subsequent normalization to the zero time point. […]

KRAS(G12C) [1] = biological target: T1, KRAS(G12C) (Homo sapiens, UniProt P01116, G12C); assay: Yeast display binding titration, KRAS(G12C); design: KRAS4B residues 1-174 containing G12C, G12V, G12D, G13D, Q61L, WT; His6 (N, cleaved yes); Avi-tag (N, cleaved yes); made in house; host or cells: E. coli BL21(DE3); conditions: ARS1620 added during nucleotide exchange
Experimental: Nucleotide exchange of RAS. Purified RAS proteins used in binding experiment and crystallization were prepared by diluting stock protein (typically containing 20-250 μM RAS) 25 times with 20 mM Tris-Cl buffer pH 7.5 containing 5 mM EDTA, 0.1 mM DTT and 1 mM final concentration of a nucleotide (GDP or GTPγS). Samples were incubated at 30° C. for 30 minutes. MgCl2 was then added to the sample at a final concentration of 20 mM and the solution was further incubated on ice for at least 5 minutes prior to use.
(§1) Monobody development. General procedures for the development of monobodies against purified protein targets have been described previously. After four rounds of phage display library selection using biotinylated KRAS(G12C) at concentrations of 100 nM, 100 nM, 50 nM and 50 nM, the genes encoding monobodies from the enriched phage pool were transferred to a yeast display vector, which was used to construct yeast-display libraries. The yeast display libraries were sorted using a Bio-Rad S3e fluorescence-activated cell sorter or a […] II cell sorter (BD Biosciences). […] Single clones were then screened for selective binding to RAS mutants. The expression of monobodies on the surface of yeast cells were detected using mouse anti-VS and anti-mouse IgG-FITC conjugate. Target binding was detected with neutravidin Dylight650. Yeast cells were analyzed using an iQue flow cytometer (Sartorius). […]
Target sequence in this assay (P01116 1-174 isoform P01116-2 G12C): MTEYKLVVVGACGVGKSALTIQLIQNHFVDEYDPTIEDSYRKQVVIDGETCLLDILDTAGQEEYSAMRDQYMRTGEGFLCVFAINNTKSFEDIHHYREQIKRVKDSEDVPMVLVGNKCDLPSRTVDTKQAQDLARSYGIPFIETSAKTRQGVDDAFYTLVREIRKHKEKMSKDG

KRAS(G12C) [2] = biological target: T1, KRAS(G12C); assay: Degradation of KRAS in RASless MEFs by VHL-monobody fusions; type: cell-based, mouse; design: expressed in transfected cells; host or cells: RASless mouse embryonic fibroblasts; conditions: MLN4924 1 μM or MG132 5 μM for 24 hours
Experimental: as §1
Target sequence in this assay (P01116 1-188 isoform P01116-2 G12C): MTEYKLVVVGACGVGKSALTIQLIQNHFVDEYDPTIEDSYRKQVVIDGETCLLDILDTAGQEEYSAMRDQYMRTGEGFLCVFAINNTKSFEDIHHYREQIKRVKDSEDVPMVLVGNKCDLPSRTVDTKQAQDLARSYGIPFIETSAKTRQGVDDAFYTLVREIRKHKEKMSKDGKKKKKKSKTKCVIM
Cell signaling assay and quantification of immunoblots. […] The supernatant was collected and measured for total protein amount using BCA assay (Thermo Scientific; 23227). […] The proteins were then transferred from the gel to a low fluorescence background PVDF membrane (Millipore; IPFL00010) or regular PVDF membrane (Millipore; ISEQ00010) depending on whether fluorescence or chemiluminescence detection was performed. […] The total RAS level was detected using a pan-RAS antibody (SCBT, sc-166691). […]

Row | binding of 12VC1 to KRAS(G12C) after reaction with ARS1620 (KRAS(G12C) [1]) | Compound | ERK activation in H358 cells (ERK activation (pERK)) | effect on RAS degradation by VHL-monobody fusion (KRAS(G12C) [2])
1 | abolished | C=CC(=O)N1CCN(c2ncnc3c(F)c(-c4c(O)cccc4F)c(Cl)cc23)CC1 [ARS1620] | effectively inhibited | 
2 |  | CC(C)C[C@@H](C=O)NC(=O)[C@H](CC(C)C)NC(=O)[C@H](CC(C)C)NC(=O)OCc1ccccc1 [MG132] (Cbz-Leu-Leu-Leu-aldehyde) |  | rescued
3 |  | NS(=O)(=O)OC[C@@H]1C[C@@H](n2ccc3c(N[C@H]4CCc5ccccc54)ncnc32)C[C@@H]1O [MLN4924] |  | rescued

Source: patent US12049483B2, “Selective and noncovalent inhibitors of oncogenic RAS mutants” (New York University, priority 2020, dated 2024)
